Reference: ChEMBL document CHEMBL3580555, “Design, Synthesis, and Biological Evaluation of Novel Imidazo[1,2-a]pyridine Derivatives as Potent c-Met Inhibitors” (ACS Med Chem Lett, 2015)
pIC50: −log10 of the molar value. Active and inactive are the calls of the source. The calls are words filed in the database; no cut-off is given here.

Columns and labels:
[1] = Antiproliferative activity against human Calu3 cells after 72 hrs; assay type: functional, cell-based; conditions: Calu-3, 72 h
[2] = biological target: Voltage-gated inwardly rectifying potassium channel KCNH2 (Homo sapiens, UniProt Q12809); assay: Inhibition of human ERG channel
[3] = Oral bioavailability in Sprague-Dawley rat at 20 mg/kg; assay type: ADME, organism-based; conditions: in vivo
EBC-1 [4] = assay: Induction of cell cycle arrest in human EBC1 cells assessed as cell accumulation at G1/S phase at 1 uM after 24 hrs by FACS analysis; assay type: functional, cell-based
[5] = Antiproliferative activity against human SNU16 cells after 72 hrs; assay type: functional, cell-based; conditions: SNU-16, 72 h
MGC-803 = assay: Antiproliferative activity against human MGC803 cells after 72 hrs; assay type: functional, cell-based; conditions: MGC-803, 72 h
[6] = Half life in Sprague-Dawley rat at 10 mg/kg, iv; assay type: ADME, organism-based; conditions: in vivo
NCI-H661 = assay: Antiproliferative activity against human NCI-H661 cells after 72 hrs; assay type: functional, cell-based; conditions: NCI-H661, 72 h
SNU1 = assay: Antiproliferative activity against human SNU1 cells after 72 hrs; assay type: functional, cell-based; conditions: SNU1, 72 h
EBC-1 [7] = assay: Antitumor activity against human EBC1 cells xenografted in po dosed mouse assessed as tumor growth inhibition treated for 3 weeks; assay type: functional, organism-based
Mus musculus = assay: Toxicity in human EBC1 cells xenografted in mouse assessed as weight losses treated at 50 to 100 mg/kg, po for 3 weeks; assay type: organism-based; conditions: in vivo, 504 h
NCI-H226 = assay: Antiproliferative activity against human NCI-H226 cells after 72 hrs; assay type: functional, cell-based; conditions: NCI-H226, 72 h
[8] = biological target: Tyrosine-protein kinase receptor TYRO3 (Homo sapiens, UniProt Q06418); assay: Inhibition of Tyro3 (unknown origin) using polu (Glu,Tyr)4:1 substrate after 30 mins incubation by multi-well spectrophotometry
NCI-H358 = assay: Antiproliferative activity against human NCI-H358 cells after 72 hrs; assay type: functional, cell-based; conditions: NCI-H358, 72 h
EBC-1 [9] = assay: Induction of cell cycle arrest in human EBC1 cells assessed as cell accumulation at G1 phase at 1 uM after 24 hrs by FACS analysis (reference value: 52.95%); assay type: functional
NCI-H596 = assay: Antiproliferative activity against human NCI-H596 cells after 72 hrs; assay type: functional, cell-based; conditions: NCI-H596, 72 h
[10] = Antitumor activity against human EBC1 cells xenografted in mouse assessed as tumor growth inhibition treated at 100 mg/kg, po for 3 weeks; assay type: functional; conditions: EBC-1, po, 504 h
[11] = Antiproliferative activity against human EBC1 cells after 72 hrs; conditions: EBC-1, 72 h
Liver microsome [12] = assay: Drug metabolism in beagle dog liver microsomes assessed as 2-Fluoro-4-(8-fluoro-3-(hydroxy(quinolin-6-yl)methyl)imidazo[1,2-a]pyridin-6-yl)-N-methylbenzamide metabolite formation after 60 mins by UPLC/Q-TOF MS/MS analysis; assay type: ADME, Canis lupus familiaris; conditions: 1 h
[13] = Antiproliferative activity against human SPCA4 cells after 72 hrs; assay type: functional, cell-based; conditions: SPC-A4, 72 h
[14] = biological target: Tyrosine-protein kinase receptor UFO (Homo sapiens, UniProt P30530); assay: Inhibition of Axl (unknown origin) using polu (Glu,Tyr)4:1 substrate after 30 mins incubation by multi-well spectrophotometry
A549 = assay: Antiproliferative activity against human A549 cells after 72 hrs; assay type: functional, cell-based; conditions: A549, 72 h
[15] = biological target: Tyrosine-protein kinase Mer (Homo sapiens, UniProt Q12866); assay: Inhibition of Mer (unknown origin) using polu (Glu,Tyr)4:1 substrate after 30 mins incubation by multi-well spectrophotometry
[16] = Drug metabolism in monkey liver microsomes assessed as 2-Fluoro-4-(8-fluoro-3-(hydroxy(quinolin-6-yl)methyl)imidazo[1,2-a]pyridin-6-yl)-N-methylbenzamide metabolite formation after 60 mins by UPLC/Q-TOF MS/MS analysis; assay type: ADME, Macaca mulatta; conditions: rhesus monkey, 1 h
NCI-H441 [17] = assay: Inhibition of HGF-induced human NCI-H441 cell migration at 500 nM after 24 hrs by spectrophotometry; assay type: functional, cell-based
Liver microsome [18] = assay: Drug metabolism in Sprague-Dawley rat liver microsomes assessed as 2-Fluoro-4-(8-fluoro-3-(hydroxy(quinolin-6-yl)methyl)imidazo[1,2-a]pyridin-6-yl)-N-methylbenzamide metabolite formation after 60 mins by UPLC/Q-TOF MS/MS analysis; assay type: ADME; conditions: 1 h
NCI-H1975 = assay: Antiproliferative activity against human NCI-H1975 cells after 72 hrs; assay type: functional, cell-based; conditions: NCI-H1975, 72 h
Liver microsome [19] = assay: Drug metabolism in human liver microsomes assessed as 2-Fluoro-4-(8-fluoro-3-(hydroxy(quinolin-6-yl)methyl)imidazo[1,2-a]pyridin-6-yl)-N-methylbenzamide metabolite formation after 60 mins by UPLC/Q-TOF MS/MS analysis; assay type: ADME; conditions: 1 h
NCI-H292 = assay: Antiproliferative activity against human NCI-H292 cells after 72 hrs; assay type: functional, cell-based; conditions: NCI-H292, 72 h
[20] = Antiproliferative activity against human MKN45 cells after 72 hrs; assay type: functional, cell-based; conditions: MKN-45, 72 h
NCI-H1299 = assay: Antiproliferative activity against human NCI-H1299 cells after 72 hrs; assay type: functional, cell-based; conditions: NCI-H1299, 72 h
NCI-H23 = assay: Antiproliferative activity against human NCI-H23 cells after 72 hrs; assay type: functional, cell-based; conditions: NCI-H23, 72 h
MDCK = assay: Reduction in HGF-induced cell scattering of MDCK cells after 24 hrs by microscopy; assay type: functional, cell-based; conditions: Canis lupus familiaris
[21] = Drug metabolism in CD1 mouse liver microsomes assessed as 2-Fluoro-4-(8-fluoro-3-(hydroxy(quinolin-6-yl)methyl)imidazo[1,2-a]pyridin-6-yl)-N-methylbenzamide metabolite formation after 60 mins by UPLC/Q-TOF MS/MS analysis; assay type: ADME; conditions: 1 h
[22] = Antitumor activity against human EBC1 cells xenografted in mouse assessed as tumor growth inhibition treated at 50 mg/kg, po for 3 weeks; assay type: functional; conditions: EBC-1, po, 504 h, read-out: INH
NCI-H441 [23] = assay: Inhibition of HGF-induced human NCI-H441 cell invasion at 500 nM after 24 hrs by spectrophotometry; assay type: functional, cell-based
HT-29 = assay: Antiproliferative activity against human HT-29 cells after 72 hrs; assay type: functional, cell-based; conditions: HT-29, 72 h
AGS = assay: Antiproliferative activity against human AGS cells after 72 hrs; assay type: functional, cell-based
[24] = Antiproliferative activity against human SNU5 cells after 72 hrs; assay type: functional, cell-based; conditions: SNU-5, 72 h
NCI-H1650 = assay: Antiproliferative activity against human NCI-H1650 cells after 72 hrs; assay type: functional, cell-based; conditions: NCI-H1650, 72 h
[25] = Antiproliferative activity against human SPCA1 cells after 72 hrs; assay type: functional, cell-based; conditions: SPCA1, 72 h
[26] = Antiproliferative activity against human SGC7901 cells after 72 hrs; assay type: functional, cell-based; conditions: SGC-7901, 72 h
NCI-H520 = assay: Antiproliferative activity against human NCI-H520 cells after 72 hrs; assay type: functional, cell-based; conditions: NCI-H520, 72 h
[27] = Antiproliferative activity against human MKN74 cells after 72 hrs; assay type: functional, cell-based; conditions: MKN-74, 72 h
Liver microsome [28] = assay: Drug formation in Sprague-Dawley rat liver microsomes treated with 2-Fluoro-4-(8-fluoro-3-(quinolin-6-ylmethyl)imidazo[1,2-a]pyridin-6-yl)-N-methylbenzamide after 60 mins by UPLC/Q-TOF MS/MS analysis; assay type: ADME; conditions: 1 h
[29] = Antiproliferative activity against human BGC823 cells after 72 hrs; assay type: functional, cell-based; conditions: BGC-823, 72 h
[30] = Antiproliferative activity against human MKN1 cells after 72 hrs; assay type: functional, cell-based; conditions: MKN-1, 72 h
BaF3 = assay: Antiproliferative activity against mouse BAF3/TPR-Met cells after 72 hrs; assay type: functional, cell-based; conditions: BaF3, 72 h

Sequence of Voltage-gated inwardly rectifying potassium channel KCNH2 (Q12809 whole entry): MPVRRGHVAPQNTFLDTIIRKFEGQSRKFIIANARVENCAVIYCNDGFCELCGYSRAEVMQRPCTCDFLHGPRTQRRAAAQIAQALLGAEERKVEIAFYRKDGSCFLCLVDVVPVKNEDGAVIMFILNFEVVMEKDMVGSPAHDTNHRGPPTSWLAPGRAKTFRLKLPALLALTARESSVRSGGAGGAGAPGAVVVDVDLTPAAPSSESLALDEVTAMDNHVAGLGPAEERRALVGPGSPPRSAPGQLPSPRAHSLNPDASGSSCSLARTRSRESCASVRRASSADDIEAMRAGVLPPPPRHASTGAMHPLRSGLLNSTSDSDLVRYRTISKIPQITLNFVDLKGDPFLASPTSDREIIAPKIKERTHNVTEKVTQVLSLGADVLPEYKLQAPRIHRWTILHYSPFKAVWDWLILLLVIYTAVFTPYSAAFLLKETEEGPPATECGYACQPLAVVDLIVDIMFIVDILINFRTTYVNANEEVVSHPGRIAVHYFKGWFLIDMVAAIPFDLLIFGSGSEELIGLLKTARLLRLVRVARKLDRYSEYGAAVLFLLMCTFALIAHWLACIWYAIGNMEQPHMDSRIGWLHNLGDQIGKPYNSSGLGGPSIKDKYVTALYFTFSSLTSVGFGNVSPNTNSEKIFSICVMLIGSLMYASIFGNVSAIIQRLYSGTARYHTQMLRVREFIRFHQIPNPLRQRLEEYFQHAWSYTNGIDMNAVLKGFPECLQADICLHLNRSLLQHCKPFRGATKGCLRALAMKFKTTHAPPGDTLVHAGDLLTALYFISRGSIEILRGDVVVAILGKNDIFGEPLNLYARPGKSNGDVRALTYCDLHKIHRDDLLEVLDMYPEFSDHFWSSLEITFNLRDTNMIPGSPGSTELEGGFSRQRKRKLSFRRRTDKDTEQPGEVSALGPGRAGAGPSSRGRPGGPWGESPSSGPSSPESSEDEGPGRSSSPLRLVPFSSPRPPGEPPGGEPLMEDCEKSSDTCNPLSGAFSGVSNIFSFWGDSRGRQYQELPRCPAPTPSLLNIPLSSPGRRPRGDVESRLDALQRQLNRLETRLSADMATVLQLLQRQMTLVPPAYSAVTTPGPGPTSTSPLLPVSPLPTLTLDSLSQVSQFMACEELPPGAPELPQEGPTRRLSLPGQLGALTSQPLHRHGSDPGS
Sequence of Tyrosine-protein kinase receptor TYRO3 (Q06418 whole entry): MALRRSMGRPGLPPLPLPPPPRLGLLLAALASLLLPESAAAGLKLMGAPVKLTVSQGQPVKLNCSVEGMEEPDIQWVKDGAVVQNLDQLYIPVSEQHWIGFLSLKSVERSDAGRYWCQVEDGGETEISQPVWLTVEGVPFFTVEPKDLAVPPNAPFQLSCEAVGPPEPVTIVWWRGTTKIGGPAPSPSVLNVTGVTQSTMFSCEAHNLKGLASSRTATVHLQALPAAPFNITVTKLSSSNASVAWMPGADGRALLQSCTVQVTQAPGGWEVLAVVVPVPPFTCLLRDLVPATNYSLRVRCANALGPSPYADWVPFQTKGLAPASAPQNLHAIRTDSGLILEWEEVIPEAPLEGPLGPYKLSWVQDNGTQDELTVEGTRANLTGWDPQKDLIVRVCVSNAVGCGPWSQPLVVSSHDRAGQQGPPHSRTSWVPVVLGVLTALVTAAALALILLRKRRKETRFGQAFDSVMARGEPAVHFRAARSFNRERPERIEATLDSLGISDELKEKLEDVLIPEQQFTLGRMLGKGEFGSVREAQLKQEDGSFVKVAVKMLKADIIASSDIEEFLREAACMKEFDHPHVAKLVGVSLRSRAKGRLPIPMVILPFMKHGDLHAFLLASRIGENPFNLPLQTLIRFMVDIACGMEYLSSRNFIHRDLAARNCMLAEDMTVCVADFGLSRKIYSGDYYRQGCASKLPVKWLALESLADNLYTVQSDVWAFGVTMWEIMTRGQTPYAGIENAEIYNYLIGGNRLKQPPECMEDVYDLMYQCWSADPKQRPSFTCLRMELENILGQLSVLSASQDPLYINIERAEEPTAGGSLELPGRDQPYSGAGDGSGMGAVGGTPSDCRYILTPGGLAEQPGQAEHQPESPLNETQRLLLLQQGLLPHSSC
Sequence of Tyrosine-protein kinase Mer (Q12866 whole entry): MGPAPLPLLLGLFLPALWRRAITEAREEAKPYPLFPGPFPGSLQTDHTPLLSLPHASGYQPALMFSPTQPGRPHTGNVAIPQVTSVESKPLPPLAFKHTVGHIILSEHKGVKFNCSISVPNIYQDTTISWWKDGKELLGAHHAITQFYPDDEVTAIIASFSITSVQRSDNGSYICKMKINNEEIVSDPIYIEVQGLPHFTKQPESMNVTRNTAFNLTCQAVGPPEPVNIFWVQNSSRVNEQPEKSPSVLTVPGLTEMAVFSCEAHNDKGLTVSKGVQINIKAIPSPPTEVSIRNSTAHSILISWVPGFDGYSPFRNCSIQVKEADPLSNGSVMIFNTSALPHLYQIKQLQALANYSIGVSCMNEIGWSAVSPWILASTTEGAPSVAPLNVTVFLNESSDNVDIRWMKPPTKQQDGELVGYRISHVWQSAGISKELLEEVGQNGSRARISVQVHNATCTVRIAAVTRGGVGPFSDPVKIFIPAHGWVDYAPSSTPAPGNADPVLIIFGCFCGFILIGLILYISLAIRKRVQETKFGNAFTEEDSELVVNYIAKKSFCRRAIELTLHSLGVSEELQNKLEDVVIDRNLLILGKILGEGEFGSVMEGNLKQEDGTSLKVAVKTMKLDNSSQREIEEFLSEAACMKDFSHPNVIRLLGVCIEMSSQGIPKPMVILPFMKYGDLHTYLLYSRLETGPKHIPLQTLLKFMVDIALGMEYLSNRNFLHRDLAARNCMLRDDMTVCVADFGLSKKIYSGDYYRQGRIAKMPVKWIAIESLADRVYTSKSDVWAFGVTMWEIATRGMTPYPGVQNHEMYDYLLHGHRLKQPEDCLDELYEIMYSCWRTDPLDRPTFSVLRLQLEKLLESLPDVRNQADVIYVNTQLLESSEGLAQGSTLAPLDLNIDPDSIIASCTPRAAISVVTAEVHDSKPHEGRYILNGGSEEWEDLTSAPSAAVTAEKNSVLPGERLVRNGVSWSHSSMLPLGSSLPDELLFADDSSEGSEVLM
Sequence of Tyrosine-protein kinase receptor UFO (P30530 whole entry): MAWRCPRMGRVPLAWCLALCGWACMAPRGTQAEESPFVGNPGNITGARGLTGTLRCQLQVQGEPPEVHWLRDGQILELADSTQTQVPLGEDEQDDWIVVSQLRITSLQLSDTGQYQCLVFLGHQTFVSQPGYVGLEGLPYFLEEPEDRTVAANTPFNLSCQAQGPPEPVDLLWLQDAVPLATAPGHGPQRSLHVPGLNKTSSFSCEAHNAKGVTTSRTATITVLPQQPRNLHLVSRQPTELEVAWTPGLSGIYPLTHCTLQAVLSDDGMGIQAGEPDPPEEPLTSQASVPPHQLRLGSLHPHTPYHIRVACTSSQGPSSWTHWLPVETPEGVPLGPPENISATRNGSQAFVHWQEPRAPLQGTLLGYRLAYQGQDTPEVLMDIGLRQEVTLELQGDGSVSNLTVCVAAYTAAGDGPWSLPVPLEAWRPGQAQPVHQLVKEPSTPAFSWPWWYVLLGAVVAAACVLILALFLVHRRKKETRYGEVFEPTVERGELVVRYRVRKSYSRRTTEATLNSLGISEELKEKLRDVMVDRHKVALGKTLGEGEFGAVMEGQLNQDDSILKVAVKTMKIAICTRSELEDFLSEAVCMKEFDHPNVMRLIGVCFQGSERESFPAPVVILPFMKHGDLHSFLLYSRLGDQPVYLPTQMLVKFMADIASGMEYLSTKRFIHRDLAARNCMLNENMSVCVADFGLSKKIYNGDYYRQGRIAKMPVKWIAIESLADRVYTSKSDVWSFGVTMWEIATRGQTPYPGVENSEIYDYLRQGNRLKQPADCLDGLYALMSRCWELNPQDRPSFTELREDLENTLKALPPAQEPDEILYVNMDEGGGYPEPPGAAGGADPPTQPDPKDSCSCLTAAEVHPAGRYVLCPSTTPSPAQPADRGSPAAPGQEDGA

SMILES: CNC(=O)c1ccc(-c2cc(F)c3ncc(Cc4ccc5ncccc5c4)n3c2)cc1F
- pIC50 [1]: < 4.30
- pIC50 [2]: 4.03
- bioavailability [3]: 29.4%
- Activity (EBC-1 [4]): Active
- pIC50 [5]: < 4.30
- pIC50 (MGC-803): < 4.30
- half-life [6]: 1.17 h
- pIC50 (NCI-H661): < 4.30
- pIC50 (SNU1): < 4.30
- TGI (EBC-1 [7]): Dose-dependent effect
- Activity (Mus musculus): Non-toxic
- pIC50 (NCI-H226): < 4.30
- pIC50 [8]: < 5.00
- pIC50 (NCI-H358): < 4.30
- Activity (EBC-1 [9]): 81.84%
- pIC50 (NCI-H596): < 4.30
- inhibition in vivo at 100 mg/kg [10]: 75%
- pIC50 [11]: 7.35
- Drug metabolism (Liver microsome [12]): metabolite_detected
- pIC50 [13]: < 4.30
- pIC50 [14]: < 5.00
- pIC50 (A549): < 4.30
- pIC50 [15]: < 5.00
- Drug metabolism [16]: metabolite_detected
- inhibition (NCI-H441 [17]): Active
- Drug metabolism (Liver microsome [18]): metabolite_notdetected
- pIC50 (NCI-H1975): < 4.30
- Drug metabolism (Liver microsome [19]): metabolite_detected
- pIC50 (NCI-H292): < 4.30
- pIC50 [20]: 7.04
- pIC50 (NCI-H1299): < 4.30
- pIC50 (NCI-H23): < 4.30
- inhibition (MDCK): Dose-dependent effect
- Drug metabolism [21]: metabolite_detected
- inhibition in vivo at 50 mg/kg [22]: 62.9%
- inhibition (NCI-H441 [23]): Active
- pIC50 (HT-29): < 4.30
- pIC50 (AGS): < 4.30
- pIC50 [24]: 7.15
- pIC50 (NCI-H1650): < 4.30
- pIC50 [25]: < 4.30
- pIC50 [26]: < 4.30
- pIC50 (NCI-H520): < 4.30
- pIC50 [27]: < 4.30
- Drug metabolism (Liver microsome [28]): metabolite_notdetected
- pIC50 [29]: < 4.30
- pIC50 [30]: < 4.30
- pIC50 (BaF3): 6.69
